Reference: patent publication US20240050400A1, “Use of the Sesquiterpene Lactone Tomentosin in the Treatment of Tumors Caused by Lymphoid Cell Lines” (Universita Degli Studi Di Sassari, priority 2021, published 2024)

Legend:
[1] = system: RPMI-8226 (of multiple myeloma) cells; test: Cell proliferation (CellTiter-Glo) and cytotoxicity (CellTox Green) test, RPMI-8226; format: cell-based; details: RPMI-8226 cells; for effect on cells (cell proliferation / cell death): 0.75-50 μM, 48 hours of treatment
Method: The molecules were tested at 7 different concentrations: 50 μ[…], in culture with lymphoid tumor (myeloma, lymphoma) cell lines. Tested cell lines: • MM.1S (of multiple myeloma), cultivated in RPMI-1640 medium, 10% FBS, L-Glutamine, AA • RPMI-8226 (of multiple myeloma), cultivated in RPMI-1640 medium, 10% FBS, L-Glutamine, AA; • Raji (of Burkitt lymphoma), cultivated in RPMI-1640 medium, 10% FBS, L-Glutamine, AA; • MRC5 (of pulmonary fibroblasts), cultivated in DMEM medium, 10% FBS, L-Glutamine, AA, Pyruvate Sodium, NEAA. […] After 48 hours of treatment, drug-induced cellular death was estimated by measuring the intensity of the fluorescence signal after staining the dead cells using a known method (CellTox Green Dye-Promega). Soon afterwards, the number of live cells was evaluated by adding CellTiter Glo P (Promega) reagent, through which the cell lysis and the luminescence signal are directly proportional to the ATP levels in each sample. 24 hours prior to the addition of the compound under examination, the cells resuspended at adequate concentrations were seeded in 384-well flat clear bottom black polystyrene TC-treated microplates (Corning 3764). Each well contained 20 μL of cell suspension. […] The seeding of the cells, the preparation of the serial dilutions, and the addition of the molecules to the cells were performed using an automated liquid pipetting platform (Gilson […]). 48 hours after the treatment, the intensity of the global green fluorescence in each well was quantified using Biotek Cytation 5. […] Immediately after the fluorescence reading, 30 μL of CellTiter Glo reagent (Promega G7571) just prepared were added to each well, and each sample was mixed 5 times. Ten minutes later, a luminescence reading was taken. […] CellTiter-Glo is a reagent used for determining the number of viable cells in a culture based on the quantification of ATP, which signals the presence of metabolically active cells. The reagent is added directly to the samples, resulting in cell lysis and generation of a luminescent signal that is proportional to the quantity of ATP. The luminescence signal is quantified using Promega Glo-Max Discover. […] When the dye binds to the DNA of the compromised cells, the fluorescent properties of the dye are enhanced, whereas viable cells produce no perceptible increase in fluorescence. […] Fluorescence intensity (GFI) is quantified by means of a Biotek Cytation 5 wide-field automated digital microscope, led cube 465 nm, filter cube excitation 469±25 nm, emission 525±25 nm. Cell viability is calculated as relative cell count (R): R=T/U×100 where T is the number of cells in the treated sample and U is the number of cells in the untreated sample. […] Cell death is measured as green fluorescence intensity (GFI).

[2] = system: Raji (of Burkitt lymphoma) cells; test: Cell proliferation (CellTiter-Glo) and cytotoxicity (CellTox Green) test, Raji; format: cell-based; details: for effect on cells (cell proliferation / cell death): 48 hours of treatment
Method: (§1) The molecules were tested at 7 different concentrations: 50 μM, 25 μM, 12.5 μM, 6.25 μM, 3.125 μM, 1.56 μM, 0.75 μM, in culture with lymphoid tumor (myeloma, lymphoma) cell lines.
(§2) Tested cell lines: • MM.1S (of multiple myeloma), cultivated in RPMI-1640 medium, 10% FBS, L-Glutamine, AA • RPMI-8226 (of multiple myeloma), cultivated in RPMI-1640 medium, 10% FBS, L-Glutamine, AA; • Raji (of Burkitt lymphoma), cultivated in RPMI-1640 medium, 10% FBS, L-Glutamine, AA; • MRC5 (of pulmonary fibroblasts), cultivated in DMEM medium, 10% FBS, L-Glutamine, AA, Pyruvate Sodium, NEAA.
(§3) After 48 hours of treatment, drug-induced cellular death was estimated by measuring the intensity of the fluorescence signal after staining the dead cells using a known method (CellTox Green Dye—Promega).
(§4) Soon afterwards, the number of live cells was evaluated by adding CellTiter Glo P (Promega) reagent, through which the cell lysis and the luminescence signal are directly proportional to the ATP levels in each sample.
(§5) 24 hours prior to the addition of the compound under examination, the cells resuspended at adequate concentrations were seeded in 384-well flat clear bottom black polystyrene TC-treated microplates (Corning 3764).
(§6) Each well contained 20 μL of cell suspension. The day after, […] of the molecules under examination, with integrated CellTox (Promega G8731) green dye, were added to each sample to obtain the desired treatment concentrations.
(§7) The seeding of the cells, the preparation of the serial dilutions, and the addition of the molecules to the cells were performed using an automated liquid pipetting platform (Gilson Pipetmax).
(§8) 48 hours after the treatment, the intensity of the global green fluorescence in each well was quantified using Biotek Cytation 5. For each sample, four images were taken to cover the whole area of the well. Image merging, processing and background removal were performed using the Gen5 software. Immediately after the fluorescence reading, 30 μL of CellTiter Glo reagent (Promega G7571) just prepared were added to each well, and each sample was mixed 5 times. Ten minutes later, a luminescence reading was taken. Three technical replicates for each condition under examination were plated.
(§9) CellTiter-Glo is a reagent used for determining the number of viable cells in a culture based on the quantification of ATP, which signals the presence of metabolically active cells.
(§10) The reagent is added directly to the samples, resulting in cell lysis and generation of a luminescent signal that is proportional to the quantity of ATP. The luminescence signal is quantified using Promega Glo-Max Discover.
(§11) The CellTox green dye measures the changes that have occurred in the integrity of the membrane following cell death. The test uses a dye which is excluded from viable cells while coloring the DNA of dead cells. When the dye binds to the DNA of the compromised cells, the fluorescent properties of the dye are enhanced, whereas viable cells produce no perceptible increase in fluorescence. Therefore, the fluorescent signal produced by the dye is proportional to cytotoxicity. Fluorescence intensity (GFI) is quantified by means of a Biotek Cytation 5 wide-field automated digital microscope, led cube 465 nm, filter cube excitation 469±25 nm, emission 525±25 nm.
(§12) Cell viability is calculated as relative cell count (R): […]
(§13) where T is the number of cells in the treated sample and U is the number of cells in the untreated sample. […]

[3] = system: aggressive human melanoma cell lines; details: cited from earlier work
[4] = system: MRC5 (of pulmonary fibroblasts) non-tumor cells; test: Cell proliferation (CellTiter-Glo) and cytotoxicity (CellTox Green) test, MRC5 non-tumor control; format: cell-based; details: for IC50 relative to the maximum concentration tested: highest tested concentration 50 μM
Method: The MRC5 cell line was used as a control to evaluate if these molecules were toxic also towards non-tumor cells.
Soon afterwards, the number of live cells was evaluated by adding CellTiter Glo P (Promega) reagent, through which the cell lysis and the luminescence signal are directly proportional to the ATP levels in each sample. […]

[5] = system: MM.1S (of multiple myeloma) cells; test: Cell proliferation (CellTiter-Glo) and cytotoxicity (CellTox Green) test, MM.1S; format: cell-based; details: MM.1S cells; for effect on cells (cell proliferation / cell death): 48 hours of treatment
Method: as §1, §2, §3, §4, §5, §6, §7, §8, §9, §10, §11, §12, §13

[6] = system: MOLT-4 cell line of human leukemia; details: through inhibition of the mTOR/PI3K/Akt signalling pathway; cited from earlier work
[7] = highest tested concentration 50 μM

SMILES | effect on cells (cell proliferation / cell death) [1] | anti-proliferative activity ([2]; 0.75-50 μM) | IC50 relative to the maximum concentration tested [2, 7] | pro-apoptotic effect [3] | IC50 relative to the maximum concentration tested [4] | anti-proliferative activity ([5]; 0.75-50 μM) | IC50 relative to the maximum concentration tested [5, 7] | effect on cells (cell proliferation / cell death) ([2]; 0.75-50 μM) | effect on cell proliferation and apoptosis [6] | anti-proliferative activity ([4]; 0.75-50 μM) | effect on cells (cell proliferation / cell death) ([5]; 0.75-50 μM) | IC50 ([1]; after 72 hours of culture) | IC50 ([2]; after 72 hours of culture) | IC50 ([5]; after 72 hours of culture)
C=C1C(=O)O[C@H]2CC(=C)[C@H]3CC[C@@](C)(O)[C@@H]3C[C@H]12 [Inuvisculide] | cytostatic effect | low anti-proliferative activity | > the maximum concentration | strong pro-apoptotic effect | > the maximum concentration | low anti-proliferative activity | > the maximum concentration | – | – | – | – | – | – | –
C=C1C(=O)O[C@@H]2C[C@H](C)C(CCC(C)=O)=CC[C@H]12 [Tomentosin] | cytostatic effect | – | – | strong pro-apoptotic effect | > the maximum concentration | – | – | cytotoxic effect | inhibits cell proliferation and induces apoptosis | low anti-proliferative activity | cytotoxic effect | – | – | –
N.N.[Cl][Pt][Cl] [cysplatin, Cisplatin] | reduced cell proliferation and increased cell death | – | – | – | – | – | – | reduced cell proliferation and increased cell death | – | – | reduced cell proliferation and increased cell death | 14.9 µM | 25.7 µM | 12.3 µM
